Experimental data published in patent publication US20250170101A1, “MONOACYLGLYCEROL LIPASE INHIBITORS AND USE THEREOF FOR THE TREATMENT AND MANAGEMENT OF PAIN AND RELATED CONDITIONS” (Psy Therapeutics, Inc., priority 2021, published 2025).

Legend:
2-AG levels in brain = experiment: Estimation of 2-AG in mouse brain after single intraperitoneal administration, Examples 23 and 24; assay type: in vivo, male C57BL/6 mice; conditions: single IP
Method: (§1) This experiment was performed to determine plasma pharmacokinetics and estimate 2-AG levels in male C57BL/6 mice brain following a single intraperitoneal administration of Compound-74 (Dose: 5, 15, 50 and 150 mg/kg). The experiment was repeated at 150 mg/kg on 3 separate test dates to obtain the data shown in FIG. 1A (plasma and brain concentration of Compound 74 30 minutes after IP injection), and on the first and third test dates to obtain the data shown in FIG. 1B (brain concentration of 2-AG30 minutes after IP injection of Compound 74). • Compound 74, Molecular Wt.: 405.46 (Freebase), % Purity: Considered 100%. • Formulation: DMSO • Dose: 5, 15, 50 and 150 mg/kg • Dose volume: 2 mL/kg • Feeding regimen: freely fed • Groups:
Study Design: A total of thirty male mice were used into the study and divided in to five groups with six mice in each group (n=6 mice/group/treatment design). Animals in Group 1 to Group 4 were administered intraperitoneally with Compound 74 solution formulation at 5, 15, 50 and 150 mg/kg dose, respectively. Animals in Group 5 were administered intraperitoneally with vehicle at 2 mL/kg dose. Blood and brain samples were collected at 0.5 h post dose. […]
Analysis: Brain samples were processed for 2-AG estimation. 2-AG levels were the detected values. Plasma concentrations were determined by fit for purpose LC-MS/MS method. […]

MAGL enzyme = molecular target: T1, MAGL enzyme (Homo sapiens, UniProt Q99685); experiment: MAGL reversible inhibition assay (washout), Example 22; assay type: biochemical; design: % MAGL activity returning after washout: concentration or dose not given beside the values; conditions: for degree to which MAGL enzymatic activity returned following washout of test compounds: pre-washout compound concentration 1 μM; for % MAGL activity returning after washout: relative to control (no inhibitor before washout), immediately following 30 minute washout
T1 sequence (Q99685 1-303): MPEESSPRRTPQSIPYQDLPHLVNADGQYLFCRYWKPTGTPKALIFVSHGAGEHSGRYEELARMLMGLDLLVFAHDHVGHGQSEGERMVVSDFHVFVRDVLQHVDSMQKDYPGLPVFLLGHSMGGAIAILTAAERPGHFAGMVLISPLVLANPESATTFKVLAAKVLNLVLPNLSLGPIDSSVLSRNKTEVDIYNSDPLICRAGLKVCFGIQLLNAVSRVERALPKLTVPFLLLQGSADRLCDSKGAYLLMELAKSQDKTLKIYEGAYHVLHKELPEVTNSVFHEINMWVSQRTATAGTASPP
Method: The reversible mechanism of MAGL inhibition of a test compound of Formula (I) can be determined. Flag-tagged MAGL enzyme will be immobilized on anti-Flag beads. Immobilized enzyme will be incubated+/−inhibitor at a dose that produces complete inhibition. Colorimetric substrate (4-NPA) will be added and the reaction monitored on a plate reader for 30 minutes to verify complete inhibition. Immobilized enzyme will then be washed thoroughly to remove the inhibitor, and fresh substrate will be added. The reaction will be monitored for an additional 30 minutes; returning enzymatic activity will indicate reversibility of inhibition. […]
For some test compounds, % activity returning after washout may be less than 100%/if complete compound unbinding takes longer than 30 minutes.

[1] = Plasma and brain concentrations after single intraperitoneal administration, Examples 23 and 24; assay type: in vivo, male C57BL/6 mice; conditions: 0.5 h
Method: as §1
Study Design: A total of thirty male mice were used into the study and divided in to five groups with six mice in each group (n=6 mice/group/treatment design). Animals in Group 1 to Group 4 were administered intraperitoneally with Compound 74 solution formulation at 5, 15, 50 and 150 mg/kg dose, respectively. Animals in Group 5 were administered intraperitoneally with vehicle at 2 mL/kg dose. Blood and brain samples were collected at 0.5 h post dose. Mice were euthanized by cervical dislocation and brain samples were dissected rapidly and snap frozen in liquid nitrogen, weighed and homogenized in 2 mL of acetonitrile containing 2-AGd5. Blood samples were centrifuged at 4000 rpm for 10 minutes at 4° C. Plasma was harvested and separated in pre-labeled tubes. All samples were stored below −70° C. until bioanalysis.
Analysis: Brain samples were processed for 2-AG estimation. 2-AG levels were the detected values. Plasma concentrations were determined by fit for purpose LC-MS/MS method. LLOQ: 5.09 ng/mL (Plasma and brain)
This experiment was performed to determine plasma pharmacokinetics and estimate 2-AG levels in male C57BL/6 mice brain following a single intraperitoneal administration of Compound-473 (Dose: 20 mg/kg). • Compound 473, Molecular Wt.: 463.41 (Freebase), % Purity: >98%. • Formulation: DMSO • Dose: 20 mg/kg • Dose volume: 10 mL/kg • Feeding regimen: Food and water ad libitum • Groups:
Study Design: A total of twelve C57BL/6 male mice were used in this study. Six animals were administered intraperitoneally with solution formulation of PSY-05-00473-002 at 20 mg/kg dose. Six animals were administered vehicle (5% NMP, 5% Solutol HS15 and 90% Normal saline) intraperitoneally at 10 mL/kg dose volume. Blood samples (approximately 60 μL) were collected under light isoflurane anesthesia from a set of six mice at 0.5 h. Plasma was harvested by centrifugation of blood and stored at −70±10° C. until analysis. After blood collection, mice were euthanized by cervical dislocation and brain samples were dissected rapidly and snapped frozen in liquid nitrogen and stored at −80. To homogenize, removed brain samples from the freezer, were divided into two equal hemispheres and weighed while still in frozen condition, and begun homogenization/extraction procedure without allowing the brain samples to thaw. One part is used for PK estimation and the other part is used for 2-AG estimation.
Analysis: For PK estimation, brain samples were homogenized in 2 volumes of PBS of brain weight. Total homogenate volume was three times of the brain weight. For 2-AG estimation, the frozen brain samples were homogenized in 2 mL acetonitrile containing 2-AGd5 (8.88 nmoles) will be incubated overnight at −20° C. to precipitate proteins. Blood samples were centrifuged at 10000 rpm for 10 minutes at 4° C. All samples were stored below −70° C. until bioanalysis. Plasma and brain homogenate samples were quantified by fit-for-purpose LC-MS/MS method (LLOQ: 1.02 ng/mL for plasma and 2.03 ng/mL for brain).

[2] = system: Post-Operative Pain (Brennan) mouse model; experiment: Chronic treatment in Post-Operative Pain (Brennan) mouse model, Example 27; assay type: in vivo, Mus Musculus C57BL/6; conditions: IP
Description: The aim of this experiment was to evaluate effect of the test compounds Compound 74 and JZL-184 in after Chronic treatment in a Post-Operative Pain (Brennan) mouse model. • Mouse model: Mus Musculus & C57BL/6, male, 6-8 weeks • End points: mechanical allodynia and body weight
(§2) • Animals was anaesthetized under Isoflorane anesthesia. • Using aseptic conditions, prepared the plantar aspect of left hind paw with a 10% povidone-iodine solution and place the paw through a hole in a sterile cloth drape. Made a 0.5-cm longitudinal incision through skin and fascia of the paw with a no. 11 scalpel blade, beginning 0.2 cm from the proximal edge of the heel and extending toward the digits. • Elevated the underlying muscle with small curved forceps and incised longitudinally with the scalpel blade, keeping the muscle origin and insertion intact. • After homeostasis with gentle pressure, apposed the skin with 5-0 slik sutures. Cover the wound site.

[3] = system: Acute Post-Operative Pain (Brennan) mice model; experiment: Acute Post-Operative Pain (Brennan) mice model, Example 26; assay type: in vivo, Mus Musculus C57BL/6; conditions: IP; for mechanical allodynia (Threshold, g) vs Vehicle control: at 30, 60 & 90 min
Description: The aim of this experiment was to evaluate effect of the test compounds Compound 74 and JZL-184 in Acute Post-Operative Pain (Brennan) mice model. • Mouse model: Mus Musculus & C57BL/6, male, 6-8 weeks • End points: mechanical allodynia and brain 2-AG (optional)
as §2

human recombinant FAAH = molecular target: T2, human recombinant FAAH (Homo sapiens, UniProt O00519); experiment: FAAH counter screen (Cayman FAAH Inhibitor Screening Assay Kit), Example 21; assay type: biochemical
T2 construct: purchased Cayman kit Item No. 10005196; FAAH enzyme 700302
T2 sequence (O00519 1-579): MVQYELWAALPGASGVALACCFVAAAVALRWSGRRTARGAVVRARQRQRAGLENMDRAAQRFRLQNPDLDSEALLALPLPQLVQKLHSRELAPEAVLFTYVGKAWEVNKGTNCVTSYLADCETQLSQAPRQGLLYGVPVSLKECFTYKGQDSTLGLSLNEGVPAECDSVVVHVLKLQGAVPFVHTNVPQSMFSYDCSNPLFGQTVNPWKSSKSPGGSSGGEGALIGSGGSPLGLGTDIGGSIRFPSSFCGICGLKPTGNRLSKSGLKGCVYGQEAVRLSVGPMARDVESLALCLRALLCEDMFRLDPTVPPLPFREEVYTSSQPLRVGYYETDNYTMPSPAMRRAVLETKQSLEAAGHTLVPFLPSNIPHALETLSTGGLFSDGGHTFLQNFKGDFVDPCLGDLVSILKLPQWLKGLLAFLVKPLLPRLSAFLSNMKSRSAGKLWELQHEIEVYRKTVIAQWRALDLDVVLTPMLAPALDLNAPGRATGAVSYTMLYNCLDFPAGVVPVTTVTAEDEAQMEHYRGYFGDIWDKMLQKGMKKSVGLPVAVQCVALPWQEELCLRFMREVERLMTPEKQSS
Method: Comparative compound potency at FAAH can be obtained with the following assay.
MAGL inhibitor compounds were also counter-screened for FAAH inhibition potency using the following assay. Assessment of FAAH inhibition was performed using Fatty Acid Amide Hydrolase Inhibitor Screening Assay Kit (Cayman Item No. 10005196) following manufacture's instruction with some modifications. The kit utilizes human recombinant FAAH and the fluorescent substrate, AMC Arachidonoyl amide (AAMCA). 5 μL of assay buffer (125 mM Tris, pH 9.0, 1 mM EDTA, i.e. ethylenediaminetetraacetic acid) was added to a 384-well black plate (Corning, 3573). Test compounds and control inhibitor JZL-195 (Cayman Chemical, 13668) were tested in 10-concentration IC50 mode with 3-fold serial dilution at a starting concentration of 100 μM and 10 μM, respectively. 300 nL or 30 nL of test compounds were delivered into a 384-well black plate (Corning, 3573) using a Labcyte Echo, followed by addition of 15 μL of FAAH enzyme (Cayman, 700302) in assay buffer. After a 5-minute pre-incubation at room temperature, 10 μL of AAMCA was added in assay buffer to start the reaction. Final concentration of FAAH enzyme is not specified and AAMCA substrate was used at the 20 uM. After these dilutions, the final concentration of the test compounds ranged from 100 μM to 5.08 nM or 10 μM down to 0.508 nM. The reaction was allowed to progress for 60 minutes, while the plate was read on an Envision plate reader at an Ex/Em of 350/460 nm with readings every minute. The data was analyzed in Microsoft Excel, using the slope between 30 and 59 minutes. The average of the no-enzyme wells (background) was subtracted from the data. The background-subtracted slope data was converted to % activity using the average of wells with enzyme and DMSO vehicle. IC50 values were calculated using GraphPad software (Sigmoidal dose response, variable slope equation).
Compounds listed in Table D2 were tested in the FAAH Counterscreen of Example 21

[4] = Method A: starting concentration of 100 μM

Cc1cc(C2CC3(C2)CN(C(=O)c2cc(O)ccc2F)C3)n(-c2ccccc2C)n1 [Compound 74, (2-fluoro-5-hydroxyphenyl)(6-(3-methyl-1-(o-tolyl)-1H-pyrazol-5-yl)-2-azaspiro[3.3]heptan-2-yl)methanone]
levels of 2-AG compared to baseline (vehicle treatment) (2-AG levels in brain; 5 and 15 mg/kg dose): elevated slightly | levels of 2-AG compared to baseline (vehicle treatment) (2-AG levels in brain; 50 and 150 mg/kg dose groups): significant increase | degree to which MAGL enzymatic activity returned following washout of test compounds (MAGL enzyme): 162 | % MAGL activity returning after washout (MAGL enzyme): >50% | Brain Plama Ratio (Kp) range ([1]; IP 5 mg/kg): 0.51-0.68 | Plasma concentration range ([1]; IP 5 mg/kg): 12 to 186 ng/mL | Brain Plama Ratio (Kp) range ([1]; IP 15 mg/kg): 0.16-0.44 | Brain concentration range ([1]; IP 15 mg/kg): 25 to 67 ng/g | Plasma concentration range ([1]; IP 15 mg/kg): 70 to 414 ng/mL | Brain Plama Ratio (Kp) range ([1]; IP 50 mg/kg): 0.06-0.08 | Plasma concentration range ([1]; IP 50 mg/kg): 447 to 14914 ng/mL | Brain Plama Ratio (Kp) range ([1]; IP 150 mg/kg): 0.07-0.20 | Brain concentration range ([1]; IP 150 mg/kg): 2412 to 12111 ng/g | Plasma concentration range ([1]; IP 150 mg/kg): 34920 to 70256 ng/mL | mechanical allodynia (Threshold, g) vs Vehicle control ([2]; 50 mg/kg, QD×8 days): significant decrease in mechanical allodynia | mechanical allodynia (Threshold, g) vs Vehicle control ([2]; 50 & 150 mg/kg, single dose): significant decrease in mechanical allodynia | mechanical allodynia (Threshold, g) vs Vehicle control ([3]; 50 & 150 mg/kg): significant decrease in mechanical allodynia

O=C(c1cc(O)ccc1F)N1CC2(CC(n3cc(C4CC4)c(-c4ccccc4F)n3)C2)C1 [Compound 493]
degree to which MAGL enzymatic activity returned following washout of test compounds (MAGL enzyme): 47 | % MAGL activity returning after washout (MAGL enzyme): <50% | IC50 (human recombinant FAAH; Method B: starting concentration of 10 μM): > 10000 nM

O=C(Oc1ccc([N+](=O)[O-])cc1)N1CCC(C(O)(c2ccc3c(c2)OCO3)c2ccc3c(c2)OCO3)CC1 [JZL-184, reference compound]
degree to which MAGL enzymatic activity returned following washout of test compounds (MAGL enzyme): complete lack of return of MAGL enzymatic activity | % MAGL activity returning after washout (MAGL enzyme): <1% | mechanical allodynia (Threshold, g) vs Vehicle control ([2]; 40 mg/kg, single dose): significant decrease in mechanical allodynia | mechanical allodynia (Threshold, g) vs Vehicle control ([3]; 40 mg/kg): significant decrease in mechanical allodynia | Clinical observation ([3]; 40 mg/kg, post IP administration): mild hypolocomotion

O=C(Oc1ccc([N+](=O)[O-])cc1)N1CCN(Cc2cccc(Oc3ccccc3)c2)CC1 [reference compound]
IC50 (human recombinant FAAH; [4]): 459 nM

O=C(Nc1cccnc1)N1CCC(Cc2cccc(Oc3ccc(C(F)(F)F)cn3)c2)CC1 [reference compound]
IC50 (human recombinant FAAH; [4]): 14 nM
